# Measurements taken from patent US20240174690A1, “ANNULATED 2-AMINO-3-CYANO THIOPHENES AND DERIVATIVES FOR THE TREATMENT OF CANCER” (BOEHRINGER INGELHEIM INTERNATIONAL GMBH, priority 2021, published 2024).
# Legend:
# [1] = system: KRAS G12C-dependent Ba/F3 cells; test: Ba/F3 proliferation assay, KRAS G12C; assay type: cell-based; settings: Mus musculus, BaF3, 72 h, AlamarBlue
# Summary of the method: (§1)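 IL-3-independent Ba/F3 lines carrying retrovirally introduced KRAS G12C, G12D or G12V; puromycin withdrawn ~10 days before assay. Duplicate treatments, AlamarBlue fluorescence readout, curve-fit analysis.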
# [2] = system: AsPC-1 cells; test: AsPC-1 CTG proliferation assay (120 h) (pancreatic cancer, G12D); assay type: cell-based; settings: Homo sapiens, ASPC1
# Experimental: AsPC-1 CTG Proliferation Assay (120 h) (Pancreatic Cancer, G12D)
# The CTG assay is designed to measure quantitatively the proliferation of AsPC-1 cells (ATCC […]), using the CellTiter Glow Assay Kit (Promega G7571). Cells are grown in RPMI medium (ATCC) supplemented with Fetal Calf Serum (Life Technologies, Gibco BRL, Cat. No. 10270-106). On “day 0” 2000 AsPC-1 cells are seeded in 60 μL RPMI ATCC+10% FCS+Penstrep in a 384-well plate, flat and clear bottom (Greiner, PNr. 781091). Cells are then incubated in the plates at 37° C. in a CO2 incubator overnight. On day 1, compounds (10 mM stock in DMSO) are added with the ECHO acoustic liquid handler system (Beckman Coulter), including DMSO controls. Plates are incubated for 120 h, and cell viability is measured using CellTiter-Glo luminescent cell viability reagent (Promega product code G7570). Viability (stated as percent of control) is defined as relative luminescence units RLU of each well divided by the RLU of cells in DMSO controls. IC50 values are determined from viability measurements by non-linear regression using a four-parameter model.
# [3] = system: SAS cells; test: SAS CTG proliferation assay (120 h) (HNSCC, wt amplified); assay type: cell-based
# Experimental: SAS CTG Proliferation Assay (120 h) (HNSCC, Wt Amplified)
# (§2) SAS cells (JCRB0260) are dispensed into 384-well plates, flat and clear bottom (Greiner, PNr. 781091) at a density of 300 cells per well in 60 μL DMEM:F12 (Gibco 31330-038)+10% Fetal Calf Serum (HyClone, PNr.: SH30084.03) and incubated at 37° C. in a CO2 incubator overnight. The next day, compounds (10 mM stock in DMSO) are added with the ECHO acoustic liquid handler system (Beckman Coulter), including DMSO controls. Plates are incubated for 120 h, and cell viability is measured using CellTiter-Glo luminescent cell viability reagent (Promega product code G7570). Viability (stated as percent of control) is defined as relative luminescence units RLU of each well divided by the RLU of cells in DMSO controls. IC50 values are determined from viability measurements by non-linear regression using a four-parameter model.
# [4] = Caco-2 assay (permeability PappAB, PappBA, efflux ratio); assay type: in vitro ADME; settings: human, Caco-2, 10 μM test compound, pH 7.4; for Papp A→B at 90 min, 10 μM: apical to basolateral; for efflux ratio at 90 min, 10 μM: efflux ratio PappBA/PappAB, read-out: Caco ER
# Text: The assay provides information on the potential of a compound to pass the cell membrane, on the extent of oral absorption as well as on whether the compound is actively transported by uptake and/or efflux transporters. Permeability measurements across polarized, confluent Caco-2 cell monolayers grown on permeable filter supports (Corning, catalog #3391) are used. […] The receiver and donor compartments contain 0.25% bovine serum albumine (BSA) in assay buffer. Passive diffusion and/or active transport of compounds across the monolayer is measured in both apical to basolateral (a-b) and basolateral to apical (b-a) direction. a-b permeability (PappAB) represents drug absorption from the intestine into the blood and b-a permeability (PappBA) drug secretion from the blood back into the intestine via both passive permeability as well as active transport mechanisms mediated by efflux and uptake transporters that are expressed on the Caco-2 cells. After a pre-incubation of 25-30 min at 37° C., at predefined time points (0, 30, 60 and 90 min), samples were taken from the receiver and donor compartment, respectively. Concentrations of test compounds in samples were measured by HPLC/MS/MS, samples from the donor compartment were diluted 1:50 (v:v) with assay buffer, samples from receiver compartment were measured without dilution.
# Apparent permeabilities in a-b (PappAB) and b-a (PappBA) directions are calculated according to the formula:
# [formula] • Vrec [mL]: buffer volume in receiver compartment • Cdon [μmol/mL]: concentration of test compound in donor compartment at t=0 • ΔCrec: difference between concentrations of test compound in receiver compartment at start and end of incubation time • Δt: Incubation time • Vrec·ΔCrec/Δt [μmol/min]: Amount of compound transferred to receiver compartment per time • A [cm^2]: filter surface
# Caco-2 efflux ratios (ER) are calculated as the ratio of PappBA/PappAB.
# [5] = system: KRAS G12D-dependent Ba/F3 cells; test: Ba/F3 proliferation assay, KRAS G12D; assay type: cell-based; settings: Mus musculus, BaF3, 72 h, AlamarBlue
# Summary of the method: as §1
# [6] = system: KRAS G12V-dependent Ba/F3 cells; test: Ba/F3 proliferation assay, KRAS G12V; assay type: cell-based; settings: Mus musculus, BaF3, 72 h, AlamarBlue;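 note: proliferation IC50 in KRAS G12V-dependent Ba/F3 cells read by AlamarBlue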
# Summary of the method: as §1
# [7] = system: LOVO cells; test: LOVO CTG proliferation assay (120 h) (CRC, G13D); assay type: cell-based; settings: Homo sapiens, CTG 120 h
# Experimental: LOVO CTG Proliferation Assay (120 h) (CRC, G13D)
# as §2, with “LOVO cells (ATCC” for “SAS cells (JCRB0260)”, “LOVO cells (ATCC CCL-229) are dispensed” for “SAS cells (JCRB0260) are dispensed”, “density of 1000 cells per” for “density of 300 cells per”, “60 μL DMEM (Sigma D6429)+10% Fetal Calf” for “60 μL DMEM:F12 (Gibco 31330-038)+10% Fetal Calf”
SMILES,IC50 [1] [nM],IC50 [2] [nM],IC50 [3] [nM],"Papp A→B at 90 min, 10 μM [4] [×10⁻⁶ cm/s]","efflux ratio at 90 min, 10 μM [4]",IC50 [5] [nM],IC50 [6] [nM],IC50 [7] [nM]
C[C@H](Oc1cc(-n2ccnc2)nc(-c2noc3c2CCC[C@@]32CCCc3sc(N)c(C#N)c32)n1)[C@@H]1CCCN1C [II-69],18,1730,102,4.1,5.4,26,7,52
C[C@H](O)Cn1ccc(-c2cc(O[C@@H](C)[C@@H]3CCCN3C)nc(-c3noc4c3CCC[C@@]43CCCc4sc(N)c(C#N)c43)n2)n1 [II-112],11,2250,54,5.9,5.6,42,6,58
C[C@H](Oc1cc(N2CCN(C)C2=O)nc(-c2noc3c2CCC[C@@]32CCCc3sc(N)c(C#N)c32)n1)[C@@H]1CCCN1C [II-75],26,1560,31,5,5,83,14,279
C[C@H](Oc1cc(N2CCNC[C@]23CCOC3)nc(-c2noc3c2CCC[C@@]32CCCc3sc(N)c(C#N)c32)n1)[C@@H]1CCCN1C [II-50],270,142,41,0.3,111,7,393,1630
CO[C@@H]1C[C@@H]([C@H](C)Oc2cc(-c3ccn(C)n3)nc(-c3noc4c3CCC[C@@]43CCCc4sc(N)c(C#N)c43)n2)N(C)C1 [II-91],15,2260,70,9,1.6,65,8,136
C[C@H](Oc1cc(C2COCCO2)nc(-c2noc3c2CCC[C@@]32CCCc3sc(N)c(C#N)c32)n1)[C@@H]1CCCN1C (some centres unmarked) [II-95],30,3320,5180,12,2.2,81,27,149
C[C@H](Oc1cc(N2CCC(C#N)C2)nc(-c2noc3c2CCC[C@@]32CCCc3sc(N)c(C#N)c32)n1)[C@@H]1CCCN1C (some centres unmarked) [II-99],28,3240,88,1.1,23.6,83,35,286
C[C@H](Oc1cc(N2CCNC3(CC3)C2)nc(-c2noc3c2CCC[C@@]32CCCc3sc(N)c(C#N)c32)n1)[C@@H]1CCCN1C [II-54],74,67,234,< 1.1,,1,157,531
C[C@H](Oc1cc(-n2cc(Cn3cncn3)nn2)nc(-c2noc3c2CCC[C@@]32CCCc3sc(N)c(C#N)c32)n1)[C@@H]1CCCN1C [II-124],9,2100,68,1,33.7,58,12,128
C[C@H](Oc1cc(-n2cncc3ccnc2-3)nc(-c2noc3c2CCC[C@@]32CCCc3sc(N)c(C#N)c32)n1)[C@@H]1CCCN1C [II-105],12,1320,55,< 10,1.1,37,6,150
C[C@H](Oc1cc(N2CCC[C@H](O)C2)nc(-c2noc3c2CCC[C@@]32CCCc3sc(N)c(C#N)c32)n1)[C@@H]1CCCN1C [II-57],38,1840,54,0.7,43.3,40,45,500
C[C@H](Oc1cc(-n2cc(Cn3ccnc3)nn2)nc(-c2noc3c2CCC[C@@]32CCCc3sc(N)c(C#N)c32)n1)[C@@H]1CCCN1C [II-113],25,2010,381,1.1,30.9,106,33,123
C[C@H](Oc1cc(N2CC[C@H](N(C)C)C2)nc(-c2noc3c2CCC[C@@]32CCCc3sc(N)c(C#N)c32)n1)[C@@H]1CCCN1C [II-49],329,511,1180,4.7,10.8,16,304,651
C[C@H](Oc1cc(-c2ccn(C)n2)nc(-c2noc3c2CCC[C@@]32CCCc3sc(N)c(C#N)c32)n1)[C@@H]1CCCN1C [II-96],8,2240,148,6.5,7.3,23,5,231
Cc1cn(-c2cc(O[C@@H](C)[C@@H]3CCCN3C)nc(-c3noc4c3CCC[C@@]43CCCc4sc(N)c(C#N)c43)n2)nn1 [II-106],31,9450,96,15,1.1,107,23,993
CO[C@@H]1C[C@@H]([C@H](C)Oc2cc(-c3cnn(C)n3)nc(-c3noc4c3CCC[C@@]43CCCc4sc(N)c(C#N)c43)n2)N(C)C1 [II-62],34,9190,50,19,0.3,39,17,2320
C[C@H](Oc1cc(-n2cc(C3CC3)nn2)nc(-c2noc3c2CCC[C@@]32CCCc3sc(N)c(C#N)c32)n1)[C@@H]1CCCN1C [II-118],25,3170,931,,0.7,133,26,295
